Values quoted from earlier work in US20230131804A1, “FARNESOID X RECEPTOR AGONISTS FOR THE TREATMENT OF DISEASE” (Metacrine, Inc., priority 2020, published 2023).
Entries after “also recorded” stand apart in the source; their conditions may differ.

Settings: published clinical studies, higher administered doses; cited from earlier work

In the case of `CC[C@H]1[C@@H](O)[C@@H]2[C@H](CC[C@]3(C)[C@@H]([C@H](C)CCC(=O)O)CC[C@@H]23)[C@@]2(C)CC[C@@H](O)C[C@@H]12` [OCA, Obeticholic acid], the adverse side effects is given as “pruritis, increased LDL cholesterol and liver toxicity; also recorded: adverse effects of increased LDL cholesterol and liver toxicity”.
